Source: patent US12486302B2, “Somatostatin receptor antagonist compounds and methods of using the same” (CDRD VENTURES INC., priority 2016, dated 2025)
Where a SMILES comes first, the peptide text is derived from it. Bridges are numbered along the chain shown (N, C = ends). Side-chain parts run from the residue outwards. [ ]: non-standard residue; d: D form. The star is where a group is joined. dPhe(4-CONH2) = NC(=O)c1ccc(C[C@@H](N)C(=O)O)cc1; dPhe(4-CH2NH2) = NCc1ccc(C[C@@H](N)C(=O)O)cc1; NMePhe(4-Cl) = CN[C@@H](Cc1ccc(Cl)cc1)C(=O)O; dPhe(4-NH2) = Nc1ccc(C[C@@H](N)C(=O)O)cc1; Phe(4-Cl) = N[C@@H](Cc1ccc(Cl)cc1)C(=O)O; d(hCit) = NC(=O)NCCCC[C@@H](N)C(=O)O; NMeY = CN[C@@H](Cc1ccc(O)cc1)C(=O)O; dNMeY = CN[C@H](Cc1ccc(O)cc1)C(=O)O; NMeT = CN[C@H](C(=O)O)[C@@H](C)O; Nicotinoyl = O=C(c1cccnc1)*; NMeC = CN[C@@H](CS)C(=O)O; dNMeC = CN[C@H](CS)C(=O)O

How the values were obtained:
[1] = molecular target: SSTR3 (Homo sapiens, UniProt P32745); assay: PathHunter β-Arrestin assay, antagonist mode, SSTR3; format: cell-based; conditions: agonist challenge at EC80
Sequence of SSTR3 (P32745 whole entry, the tested form may be a part): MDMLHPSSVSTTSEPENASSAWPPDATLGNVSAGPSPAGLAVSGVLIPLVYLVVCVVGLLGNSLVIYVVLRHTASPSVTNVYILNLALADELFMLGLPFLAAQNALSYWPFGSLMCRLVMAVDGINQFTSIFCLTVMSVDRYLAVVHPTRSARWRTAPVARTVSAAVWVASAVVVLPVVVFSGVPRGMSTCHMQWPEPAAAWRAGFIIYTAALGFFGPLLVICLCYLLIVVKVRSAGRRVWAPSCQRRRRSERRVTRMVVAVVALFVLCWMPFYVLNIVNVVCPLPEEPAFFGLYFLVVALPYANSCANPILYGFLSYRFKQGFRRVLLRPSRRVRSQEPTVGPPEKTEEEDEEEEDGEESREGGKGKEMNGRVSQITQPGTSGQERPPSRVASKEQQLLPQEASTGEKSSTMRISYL
Description: The PathHunter® β-Arrestin assay monitors the activation of a GPCR in a homogenous, non-imaging assay format using a technology developed by DiscoveRx called Enzyme Fragment Complementation (EFC) with β-galactosidase (β-Gal) as the functional reporter. […] EA is fused to β-Arrestin and […] is fused to the GPCR of interest. When the GPCR is activated and β-Arrestin is recruited to the receptor, ED and EA complementation occurs, restoring β-Gal activity which is measured using chemiluminescent PathHunter® Detection Reagents. For antagonist determination, cells were pre-incubated with the compounds followed by agonist challenge at the EC80 concentration. Data was normalized to the maximal and minimal response observed in the presence of EC80 ligand and vehicle. Compound activity was analyzed using CBIS data analysis suite ChemInnovation, CA). Percentage inhibition was calculated using the following formula: % Inhibition=100%×(1−(mean signal of test sample-mean signal of vehicle control)/(mean signal of EC80 control-mean signal of vehicle control)). Percentage inhibition was calculated at 10 concentrations in steps on a Log 3 scale ranging from […] to 5e-5 μM. The results were plotted for IC50 calculation.

[2] = molecular target: somatostatin type 2 (SSTR2) receptors (Homo sapiens, UniProt P30874); assay: PathHunter β-Arrestin assay, antagonist mode, SSTR2; format: cell-based; conditions: agonist challenge at EC80
Sequence of somatostatin type 2 (SSTR2) receptors (P30874 whole entry): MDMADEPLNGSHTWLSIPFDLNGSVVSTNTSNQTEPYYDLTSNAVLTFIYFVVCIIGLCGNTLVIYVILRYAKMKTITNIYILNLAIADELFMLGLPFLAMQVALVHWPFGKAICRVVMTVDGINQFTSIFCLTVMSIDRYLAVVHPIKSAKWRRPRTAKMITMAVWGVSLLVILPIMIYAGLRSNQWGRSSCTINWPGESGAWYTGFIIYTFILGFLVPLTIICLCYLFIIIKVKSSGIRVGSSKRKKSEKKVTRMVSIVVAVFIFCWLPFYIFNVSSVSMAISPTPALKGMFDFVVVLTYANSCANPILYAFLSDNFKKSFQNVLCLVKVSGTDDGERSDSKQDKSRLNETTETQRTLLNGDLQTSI
How it was run: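 Cells co-expressing PK-tagged human receptor and EA-β-Arrestin were pre-incubated with compound, then challenged with agonist at EC80. β-Gal complementation read by chemiluminescence; % inhibition normalized to EC80 and vehicle controls at 10 concentrations (log 3 steps from 1 μM down to 5e-5 μM), fitted for IC50.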

Structure (SMILES): C[C@@H](O)[C@@H]1NC(=O)[C@H](CCCCN)NC(=O)[C@@H](CCCCNC(N)=O)NC(=O)[C@H](Cc2ccc(O)cc2)NC(=O)[C@H](NC(=O)[C@@H](N)Cc2ccc(Cl)cc2)CSSC[C@@H](C(=O)N[C@H](Cc2ccc(O)cc2)C(N)=O)NC1=O [Compound 2, H-Cpa-cyclo[DCys- Tyr-DHoCit-Lys- Thr-Cys]- DTyr-NH2] (H-[Phe(4-Cl)][dC]Y[d(hCit)]KTC[dY]-NH2; disulfide 2-7)
- IC50 [1]: > 1000 nM
- IC50 [2]: 181 nM

Structure (SMILES): C[C@@H](O)[C@@H]1NC(=O)[C@H](CCCCN)NC(=O)[C@@H](CCCCNC(=O)c2cccnc2)NC(=O)[C@H](Cc2ccc(O)cc2)NC(=O)[C@H](NC(=O)[C@@H](N)Cc2ccc(Cl)cc2)CSSC[C@@H](C(=O)N[C@H](Cc2ccc(O)cc2)C(N)=O)NC1=O [Compound 3, H-Cpa-cyclo[DCys- Tyr-D-(N^ϵ- nicotinoyl)Lys-Lys- Thr-Cys]-DTyr-NH2] (H-[Phe(4-Cl)][dC]Y[dK](Nicotinoyl)KTC[dY]-NH2; disulfide 2-7)
- IC50 [1]: > 1000 nM
- IC50 [2]: 251 nM

Structure (SMILES): C[C@@H](O)[C@@H]1NC(=O)[C@H](CCCCN)NC(=O)[C@@H](Cc2ccc(CN)cc2)NC(=O)[C@H](Cc2ccc(O)cc2)NC(=O)[C@H](NC(=O)[C@@H](N)Cc2ccc(Cl)cc2)CSSC[C@@H](C(=O)N[C@H](Cc2ccc(O)cc2)C(N)=O)NC1=O [Compound 5, H-Cpa-cyclo[DCys- Tyr-D-(4-aminomethyl)Phe- Lys-Thr-Cys]- DTyr-NH2] (H-[Phe(4-Cl)][dC]Y[dPhe(4-CH2NH2)]KTC[dY]-NH2; disulfide 2-7)
- IC50 [1]: > 1000 nM
- IC50 [2]: 213 nM

Structure (SMILES): CC(=O)NCc1ccc(C[C@H]2NC(=O)[C@H](Cc3ccc(O)cc3)NC(=O)[C@H](NC(=O)[C@@H](N)Cc3ccc(Cl)cc3)CSSC[C@@H](C(=O)N[C@H](Cc3ccc(O)cc3)C(N)=O)NC(=O)[C@H]([C@@H](C)O)NC(=O)[C@H](CCCCN)NC2=O)cc1 [Compound 6, H-Cpa-cyclo[DCys- Tyr-D-(4- acetamido- methyl)Phe- Lys-Thr-Cys]-DTyr- NH2] (H-[Phe(4-Cl)][dC]Y[dPhe(4-CH2NH2)](Ac)KTC[dY]-NH2; disulfide 2-7)
- IC50 [1]: > 1000 nM
- IC50 [2]: 166 nM

Structure (SMILES): C[C@@H](O)[C@@H]1NC(=O)[C@H](CCCCN)NC(=O)[C@@H](Cc2ccc(NC(=O)CN)cc2)NC(=O)[C@H](Cc2ccc(O)cc2)NC(=O)[C@H](NC(=O)[C@@H](N)Cc2ccc(Cl)cc2)CSSC[C@@H](C(=O)N[C@H](Cc2ccc(O)cc2)C(N)=O)NC1=O [Compound 8, H-Cpa-cyclo[DCys- Tyr-D-4-(Gly) Aph-Lys- Thr-Cys]-DTyr-NH2] (H-[Phe(4-Cl)][dC]Y[dPhe(4-NH2)](Gly)KTC[dY]-NH2; disulfide 2-7)
- IC50 [1]: > 1000 nM
- IC50 [2]: 84 nM

Structure (SMILES): CC(=O)NCC(=O)Nc1ccc(C[C@H]2NC(=O)[C@H](Cc3ccc(O)cc3)NC(=O)[C@H](NC(=O)[C@@H](N)Cc3ccc(Cl)cc3)CSSC[C@@H](C(=O)N[C@H](Cc3ccc(O)cc3)C(N)=O)NC(=O)[C@H]([C@@H](C)O)NC(=O)[C@H](CCCCN)NC2=O)cc1 [Compound 9, H-Cpa-cyclo[DCys- Tyr-D-4-(Gly- Ac)Aph- Lys-Thr-Cys]- DTyr-NH2] (H-[Phe(4-Cl)][dC]Y[dPhe(4-NH2)]([Gly-Ac])KTC[dY]-NH2; disulfide 2-7)
- IC50 [1]: > 1000 nM
- IC50 [2]: 104 nM

Structure (SMILES): C[C@@H](O)[C@@H]1NC(=O)[C@H](CCCCN)NC(=O)[C@@H](Cc2ccc(NC(=O)[C@@H]3CCCN3)cc2)NC(=O)[C@H](Cc2ccc(O)cc2)NC(=O)[C@H](NC(=O)[C@@H](N)Cc2ccc(Cl)cc2)CSSC[C@@H](C(=O)N[C@H](Cc2ccc(O)cc2)C(N)=O)NC1=O [Compound 10, H-Cpa-cyclo[DCys- Tyr-D-4-(Pro) Aph-Lys- Thr-Cys]- DTyr-NH2] (H-[Phe(4-Cl)][dC]Y[dPhe(4-NH2)](Pro)KTC[dY]-NH2; disulfide 2-7)
- IC50 [1]: > 1000 nM
- IC50 [2]: > 1000 nM

Structure (SMILES): C[C@@H](O)[C@H]1C(=O)N[C@H](C(=O)N[C@H](Cc2ccc(O)cc2)C(N)=O)CSSC[C@@H](NC(=O)[C@@H](N)Cc2ccc(Cl)cc2)C(=O)N(C)[C@@H](Cc2ccc(O)cc2)C(=O)N[C@H](Cc2ccc(C(N)=O)cc2)C(=O)N[C@@H](CCCCN)C(=O)N1C [Compound 75, H-Cpa-[DCys-NMeTyr-DPhe(4-carbamoyl)-Lys-NMeThr-Cys]-DTyr-NH2] (H-[Phe(4-Cl)][dC][NMeY][dPhe(4-CONH2)]K[NMeT]C[dY]-NH2; disulfide 2-7)
- IC50 [2]: > 1000 nM

Structure (SMILES): C[C@@H](O)[C@@H]1NC(=O)[C@H](CCCCN)NC(=O)[C@@H](Cc2ccc(C(N)=O)cc2)NC(=O)[C@H](Cc2ccc(O)cc2)NC(=O)[C@H](NC(=O)[C@@H](N)Cc2ccc(Cl)cc2)CSSC[C@@H](C(=O)N[C@H](Cc2ccc(O)cc2)C(N)=O)N(C)C1=O [Compound 76, H-Cpa-[DCys- Tyr-DPhe (4-carbamoyl)- Lys-Thr-NMeCys]- DTyr-NH2] (H-[Phe(4-Cl)][dC]Y[dPhe(4-CONH2)]KT[NMeC][dY]-NH2; disulfide 2-7)
- IC50 [2]: 400 nM

Structure (SMILES): CN[C@@H](Cc1ccc(Cl)cc1)C(=O)N[C@@H]1CSSC[C@@H](C(=O)N[C@H](Cc2ccc(O)cc2)C(N)=O)NC(=O)[C@H]([C@@H](C)O)NC(=O)[C@H](CCCCN)NC(=O)[C@@H](Cc2ccc(C(N)=O)cc2)NC(=O)[C@H](Cc2ccc(O)cc2)NC1=O [Compound 77, H—(N-Me)Cpa-cyclo[D-Cys-Tyr-D-Phe(4-carbamoyl)-Lys-Thr-Cys]-D-Tyr-NH2] (H-[NMePhe(4-Cl)][dC]Y[dPhe(4-CONH2)]KTC[dY]-NH2; disulfide 2-7)
- IC50 [2]: 2.25 nM

Structure (SMILES): C[C@@H](O)[C@@H]1NC(=O)[C@H](CCCCN)NC(=O)[C@@H](Cc2ccc(C(N)=O)cc2)NC(=O)[C@H](Cc2ccc(O)cc2)NC(=O)[C@H](N(C)C(=O)[C@@H](N)Cc2ccc(Cl)cc2)CSSC[C@@H](C(=O)N[C@H](Cc2ccc(O)cc2)C(N)=O)NC1=O [Compound 78, H-Cpa- [NMeDCys- Tyr-DPhe (4-carbamoyl)- Lys-Thr-Cys]- DTyr-NH2] (H-[Phe(4-Cl)][dNMeC]Y[dPhe(4-CONH2)]KTC[dY]-NH2; disulfide 2-7)
- IC50 [2]: 6.79 nM

Structure (SMILES): C[C@@H](O)[C@@H]1NC(=O)[C@H](CCCCN)NC(=O)[C@@H](Cc2ccc(C(N)=O)cc2)NC(=O)[C@H](Cc2ccc(O)cc2)NC(=O)[C@H](NC(=O)[C@@H](N)Cc2ccc(Cl)cc2)CSSC[C@@H](C(=O)N(C)[C@H](Cc2ccc(O)cc2)C(N)=O)NC1=O [Compound 79, H-Cpa-[DCys- Tyr-DPhe(4- carbamoyl)-Lys- Thr-Cys]- NMeDTyr-NH2] (H-[Phe(4-Cl)][dC]Y[dPhe(4-CONH2)]KTC[dNMeY]-NH2; disulfide 2-7)
- IC50 [2]: 28.7 nM

Structure (SMILES): CN[C@@H](Cc1ccc(Cl)cc1)C(=O)N[C@@H]1CSSC[C@@H](C(=O)N(C)[C@H](Cc2ccc(O)cc2)C(N)=O)NC(=O)[C@H]([C@@H](C)O)N(C)C(=O)[C@H](CCCCN)NC(=O)[C@@H](Cc2ccc(C(N)=O)cc2)NC(=O)[C@H](Cc2ccc(O)cc2)N(C)C1=O [Compound 80, H-NMeCpa-[DCys-NMeTyr-DPhe(4-carbamoyl)-Lys-NMeThr-Cys]-NMeTyr-NH2] (H-[NMePhe(4-Cl)][dC][NMeY][dPhe(4-CONH2)]K[NMeT]C[dNMeY]-NH2; disulfide 2-7)
- IC50 [2]: > 1000 nM
